{
  "source": "paper PMC10272112",
  "about": "(Nature Communications, 2023)",
  "key": {"HDAC8": {"biological_target": "T1, HDAC8 (Homo sapiens, UniProt Q9BY41)", "T1 sequence (Q9BY41 1-377)": "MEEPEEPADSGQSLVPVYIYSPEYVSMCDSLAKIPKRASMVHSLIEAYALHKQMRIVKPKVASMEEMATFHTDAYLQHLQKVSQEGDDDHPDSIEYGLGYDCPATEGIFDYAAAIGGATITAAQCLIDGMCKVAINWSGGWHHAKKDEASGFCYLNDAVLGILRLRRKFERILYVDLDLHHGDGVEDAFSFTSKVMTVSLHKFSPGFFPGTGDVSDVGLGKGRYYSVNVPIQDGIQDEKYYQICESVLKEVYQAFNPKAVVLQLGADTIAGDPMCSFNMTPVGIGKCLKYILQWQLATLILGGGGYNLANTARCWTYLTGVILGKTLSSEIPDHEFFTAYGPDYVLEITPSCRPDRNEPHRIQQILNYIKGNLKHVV", "test": "HDAC-Glo assay", "format": "biochemical", "set-up": "purchased BPS Bioscience 50008", "details": "read-out: log EC50 from dose-dependent HDAC inhibition curves (converted)", "protocol": "(§1) To validate the inhibition of HDACs by LA and LM and elaborate on the structure-activity relationship (SAR) of enantiomers as well as oxidized versus reduced forms of the molecules, we performed enzyme activity assays for recombinant HDAC1,2,3,6,8 as well as FRET-based binding assay for recombinant HDAC10.\n(§2) The experiments were performed according to ref. [48]. […] Drug dosing was performed with a D300e Digital Dispenser (Tecan). HDACs (7 ng/mL for HDAC1, 25 ng/mL for HDAC2, 200 ng/mL for HDAC3/Ncor2 complex, 100 ng/mL for HDAC6, 200 ng/mL for HDAC8) and inhibitors were incubated together at room temperature (RT) for 30 min. After the addition of the HDAC-Glo™ I/II reagent, plates were shaken (800 rpm orbital shaker, 30 s), centrifuged (300 g, 1 min), and incubated at RT for 30 min. Luminescence was detected with a CLARIOstar (BMG Labtech) plate reader."}, "HDAC6": {"biological_target": "T2, HDAC6 (Homo sapiens, UniProt Q9UBN7)", "T2 sequence (Q9UBN7 1-1215)": "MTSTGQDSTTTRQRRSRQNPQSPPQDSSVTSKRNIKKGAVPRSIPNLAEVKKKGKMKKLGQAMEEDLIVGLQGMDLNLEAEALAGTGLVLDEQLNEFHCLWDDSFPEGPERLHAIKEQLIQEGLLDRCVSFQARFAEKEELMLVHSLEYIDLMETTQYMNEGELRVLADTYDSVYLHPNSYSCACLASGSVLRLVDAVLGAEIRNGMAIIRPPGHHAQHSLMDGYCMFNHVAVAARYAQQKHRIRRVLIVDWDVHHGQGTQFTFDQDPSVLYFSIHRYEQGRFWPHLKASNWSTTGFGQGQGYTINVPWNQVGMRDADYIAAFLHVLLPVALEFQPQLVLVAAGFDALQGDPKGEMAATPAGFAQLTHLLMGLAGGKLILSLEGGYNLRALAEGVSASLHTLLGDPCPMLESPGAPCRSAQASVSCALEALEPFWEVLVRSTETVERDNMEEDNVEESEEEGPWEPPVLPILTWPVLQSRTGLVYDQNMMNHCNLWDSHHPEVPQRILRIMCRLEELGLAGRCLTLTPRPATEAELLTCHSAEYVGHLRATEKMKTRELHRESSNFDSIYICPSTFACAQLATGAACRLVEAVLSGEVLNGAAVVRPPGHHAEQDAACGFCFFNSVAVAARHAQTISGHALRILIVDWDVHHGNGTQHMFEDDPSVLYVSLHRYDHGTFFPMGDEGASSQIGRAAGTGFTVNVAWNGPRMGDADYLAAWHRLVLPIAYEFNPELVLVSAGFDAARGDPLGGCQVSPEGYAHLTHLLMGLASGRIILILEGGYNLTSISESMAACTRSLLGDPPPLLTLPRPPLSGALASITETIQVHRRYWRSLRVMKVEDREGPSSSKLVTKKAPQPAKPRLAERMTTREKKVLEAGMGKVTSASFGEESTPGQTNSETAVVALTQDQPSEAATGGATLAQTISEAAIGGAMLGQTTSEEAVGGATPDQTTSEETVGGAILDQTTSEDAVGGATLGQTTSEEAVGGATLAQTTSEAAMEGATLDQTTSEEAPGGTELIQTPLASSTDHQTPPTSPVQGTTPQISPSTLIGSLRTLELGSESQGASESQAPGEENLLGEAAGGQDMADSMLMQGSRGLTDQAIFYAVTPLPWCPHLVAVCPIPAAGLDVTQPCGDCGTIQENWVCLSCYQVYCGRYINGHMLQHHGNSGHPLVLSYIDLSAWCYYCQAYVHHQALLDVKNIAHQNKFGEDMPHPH", "test": "HDAC-Glo assay", "format": "biochemical", "set-up": "purchased BPS Bioscience 50006", "details": "for EC50: read-out: log EC50 from dose-dependent HDAC inhibition curves (converted)", "protocol": "as §1, §2"}},
  "note": "Where “and” joins values, the source holds several entries; their conditions need not be identical. Identical values can stand only once.",
  "data": [
    {"smiles": "O=C(O)CCCCC1CCSS1", "note": "(racemic) [(R/S)-LA, (R/S)-lipoic acid]", "values": [
      {"measurement": "EC50", "setting": "HDAC8", "result": 22.3, "unit": "µM"},
      {"measurement": "HDAC enzymatic activity (normalized luminescence)", "setting": "HDAC6; 0.5 M TCEP, log10 M -3.30103, 3 technical replicates", "result": "1.458 and 1.424 and 1.356"},
      {"measurement": "HDAC enzymatic activity (normalized luminescence)", "setting": "HDAC6; 0.5 M TCEP, log10 M -3.82945, 3 technical replicates", "result": "2.832 and 2.728 and 2.83"},
      {"measurement": "HDAC enzymatic activity (normalized luminescence)", "setting": "HDAC6; 0.5 M TCEP, log10 M -4.35788, 3 technical replicates", "result": "6.139 and 5.789 and 5.799"},
      {"measurement": "HDAC enzymatic activity (normalized luminescence)", "setting": "HDAC6; 0.5 M TCEP, log10 M -4.88629, 3 technical replicates", "result": "13.455 and 13.5196 and 13.8559"},
      {"measurement": "HDAC enzymatic activity (normalized luminescence)", "setting": "HDAC6; 0.5 M TCEP, log10 M -5.41477, 3 technical replicates", "result": "31.3499 and 32.1006 and 33.4073"},
      {"measurement": "HDAC enzymatic activity (normalized luminescence)", "setting": "HDAC6; 0.5 M TCEP, log10 M -5.94309, 3 technical replicates", "result": "55.9078 and 57.6015 and 56.5157"},
      {"measurement": "HDAC enzymatic activity (normalized luminescence)", "setting": "HDAC6; 0.5 M TCEP, log10 M -6.47756, 3 technical replicates", "result": "76.0987 and 79.5289 and 82.7102"},
      {"measurement": "HDAC enzymatic activity (normalized luminescence)", "setting": "HDAC6; 0.5 M TCEP, log10 M -6.87615, 3 technical replicates", "result": "85.7363 and 87.7513 and 88.064"},
      {"measurement": "HDAC enzymatic activity (normalized luminescence)", "setting": "HDAC6; no TCEP, log10 M -3.30103, 3 technical replicates", "result": "23.0918 and 22.3431 and 22.7816"},
      {"measurement": "HDAC enzymatic activity (normalized luminescence)", "setting": "HDAC6; no TCEP, log10 M -3.82945, 3 technical replicates", "result": "56.1761 and 58.3464 and 57.3647"},
      {"measurement": "HDAC enzymatic activity (normalized luminescence)", "setting": "HDAC6; no TCEP, log10 M -4.35788, 3 technical replicates", "result": "82.4637 and 85.6042 and 82.8934"},
      {"measurement": "HDAC enzymatic activity (normalized luminescence)", "setting": "HDAC6; no TCEP, log10 M -4.88629, 3 technical replicates", "result": "93.4335 and 99.2455 and 95.9681"},
      {"measurement": "HDAC enzymatic activity (normalized luminescence)", "setting": "HDAC6; no TCEP, log10 M -5.41477, 3 technical replicates", "result": "97.1057 and 101.846 and 99.5994"},
      {"measurement": "HDAC enzymatic activity (normalized luminescence)", "setting": "HDAC6; no TCEP, log10 M -5.94309, 3 technical replicates", "result": "97.3023 and 99.1974 and 100.246"},
      {"measurement": "HDAC enzymatic activity (normalized luminescence)", "setting": "HDAC6; no TCEP, log10 M -6.47756, 3 technical replicates", "result": "99.4261 and 102.712 and 105.54"},
      {"measurement": "HDAC enzymatic activity (normalized luminescence)", "setting": "HDAC6; no TCEP, log10 M -6.87615, 3 technical replicates", "result": "96.4036 and 90.044 and 88.9734"},
      {"measurement": "EC50", "setting": "HDAC6", "result": 1.73, "unit": "µM"},
      {"measurement": "HDAC6 relative activity", "setting": "HDAC6; sheet S2b, log conc -3.30103", "result": "1.144 and 1.081 and 1.088"},
      {"measurement": "HDAC6 relative activity", "setting": "HDAC6; sheet S2b, log conc -3.82945", "result": "2.37 and 2.452 and 2.46"},
      {"measurement": "HDAC6 relative activity", "setting": "HDAC6; sheet S2b, log conc -4.35788", "result": "4.674 and 4.632 and 4.542"},
      {"measurement": "HDAC6 relative activity", "setting": "HDAC6; sheet S2b, log conc -4.88629", "result": "10.1866 and 10.4131 and 10.6467"},
      {"measurement": "HDAC6 relative activity", "setting": "HDAC6; sheet S2b, log conc -5.41477", "result": "23.025 and 23.2631 and 23.7333"},
      {"measurement": "HDAC6 relative activity", "setting": "HDAC6; sheet S2b, log conc -5.94309", "result": "48.9979 and 48.9603 and 49.8705"},
      {"measurement": "HDAC6 relative activity", "setting": "HDAC6; sheet S2b, log conc -6.47756", "result": "72.291 and 73.4771 and 73.4953"},
      {"measurement": "HDAC6 relative activity", "setting": "HDAC6; sheet S2b, log conc -6.87615", "result": "86.8078 and 88.7475 and 90.3905"},
      {"measurement": "HDAC6 relative activity", "setting": "HDAC6; sheet S2d, log conc -3.30103", "result": "1.458 and 1.424 and 1.356"},
      {"measurement": "HDAC6 relative activity", "setting": "HDAC6; sheet S2d, log conc -3.82945", "result": "2.832 and 2.728 and 2.83"},
      {"measurement": "HDAC6 relative activity", "setting": "HDAC6; sheet S2d, log conc -4.35788", "result": "6.139 and 5.789 and 5.799"},
      {"measurement": "HDAC6 relative activity", "setting": "HDAC6; sheet S2d, log conc -4.88629", "result": "13.455 and 13.5196 and 13.8559"},
      {"measurement": "HDAC6 relative activity", "setting": "HDAC6; sheet S2d, log conc -5.41477", "result": "31.3499 and 32.1006 and 33.4073"},
      {"measurement": "HDAC6 relative activity", "setting": "HDAC6; sheet S2d, log conc -5.94309", "result": "55.9078 and 57.6015 and 56.5157"},
      {"measurement": "HDAC6 relative activity", "setting": "HDAC6; sheet S2d, log conc -6.47756", "result": "76.0987 and 79.5289 and 82.7102"},
      {"measurement": "HDAC6 relative activity", "setting": "HDAC6; sheet S2d, log conc -6.87615", "result": "85.7363 and 87.7513 and 88.064"}
    ]},
    {"smiles": "NC(=O)CCCCC1CCSS1", "note": "(racemic) [(R/S)-LM, (R/S)-lipoamide]", "values": [
      {"measurement": "EC50", "setting": "HDAC8", "result": 7.73, "unit": "µM"},
      {"measurement": "EC50", "setting": "HDAC6", "result": 0.931, "unit": "µM"},
      {"measurement": "HDAC6 relative activity", "setting": "HDAC6; sheet S2b, log conc -3.30103", "result": "75.3248 and 75.1005 and 70.3242"},
      {"measurement": "HDAC6 relative activity", "setting": "HDAC6; sheet S2b, log conc -3.82945", "result": "95.4583 and 94.7241 and 92.4168"},
      {"measurement": "HDAC6 relative activity", "setting": "HDAC6; sheet S2b, log conc -4.35788", "result": "101.41 and 101.875 and 100.004"},
      {"measurement": "HDAC6 relative activity", "setting": "HDAC6; sheet S2b, log conc -4.88629", "result": "103.293 and 100.632 and 100.653"},
      {"measurement": "HDAC6 relative activity", "setting": "HDAC6; sheet S2b, log conc -5.41477", "result": "102.294 and 103.492 and 99.8033"},
      {"measurement": "HDAC6 relative activity", "setting": "HDAC6; sheet S2b, log conc -5.94309", "result": "101.321 and 102.657 and 100.612"},
      {"measurement": "HDAC6 relative activity", "setting": "HDAC6; sheet S2b, log conc -6.47756", "result": "107.714 and 104.061 and 103.825"},
      {"measurement": "HDAC6 relative activity", "setting": "HDAC6; sheet S2b, log conc -6.87615", "result": "97.9564 and 94.6265 and 91.4846"}
    ]}
  ]
}
